Activity calls are given as the source filed them.

The results in this text go back to ChEMBL document CHEMBL1201862, “PubChem BioAssay data set” (2004).

Experiment [1] deals with Glucose-6-phosphate 1-dehydrogenase (Homo sapiens, UniProt P11413). Description: human G6PD enzyme inhibitors, dose response, selectivity assay for P. falciparum G6PD inhibitor project, biochemical, fluorescence (AID 504792). The format is functional.
The target of experiment [2] is T1, Heat shock factor protein 1 (Mus musculus, UniProt P38532).
T1 sequence (P38532 whole entry): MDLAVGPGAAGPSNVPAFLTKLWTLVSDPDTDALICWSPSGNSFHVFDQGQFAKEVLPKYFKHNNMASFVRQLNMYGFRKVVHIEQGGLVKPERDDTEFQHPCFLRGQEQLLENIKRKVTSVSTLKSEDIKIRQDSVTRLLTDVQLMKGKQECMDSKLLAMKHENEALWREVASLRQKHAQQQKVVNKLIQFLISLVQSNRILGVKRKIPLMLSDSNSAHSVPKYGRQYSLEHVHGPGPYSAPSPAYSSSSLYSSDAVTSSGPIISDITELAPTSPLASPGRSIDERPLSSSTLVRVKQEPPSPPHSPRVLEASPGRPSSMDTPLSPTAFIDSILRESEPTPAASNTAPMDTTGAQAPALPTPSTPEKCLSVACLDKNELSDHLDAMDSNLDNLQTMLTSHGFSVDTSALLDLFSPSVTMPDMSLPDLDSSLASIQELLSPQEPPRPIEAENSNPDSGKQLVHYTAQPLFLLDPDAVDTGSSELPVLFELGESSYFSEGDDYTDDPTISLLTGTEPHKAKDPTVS
Kind of experiment: inhibition of MG132-induced HSE-luciferase signal, confirmation, cell-based, NIH3T3, luminescence, dose retest (AID 2382).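 Also: NIH3T3 fibroblasts with HSF1-driven luciferase reporter stressed by proteasome inhibitor MG132; luminescence from HSF1-driven luciferase expression after 8 hours of MG132 stress.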 Type of experiment: functional.

Another experiment relates to HeLa. Kind of experiment: HeLa cell cytotoxicity, dose response, cytotoxicity control for MITF activator project, CellTiter-Glo luminescence, cherry-pick samples (AID 540259). The format is functional, cell-based. To be noted: Homo sapiens.
Experiment [3] is described as follows: HEp-2 cell cytotoxicity, dose response, cytotoxicity control for RSV inhibitor project, HTS (AID 2410). Type of experiment: functional. Conditions: human respiratory syncytial virus.
The target in the next experiment is T2, Estrogen receptor (Homo sapiens, UniProt P03372).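 Also: potency for inhibiting coactivator peptide recruitment to the receptor.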
T2 sequence (P03372 whole entry): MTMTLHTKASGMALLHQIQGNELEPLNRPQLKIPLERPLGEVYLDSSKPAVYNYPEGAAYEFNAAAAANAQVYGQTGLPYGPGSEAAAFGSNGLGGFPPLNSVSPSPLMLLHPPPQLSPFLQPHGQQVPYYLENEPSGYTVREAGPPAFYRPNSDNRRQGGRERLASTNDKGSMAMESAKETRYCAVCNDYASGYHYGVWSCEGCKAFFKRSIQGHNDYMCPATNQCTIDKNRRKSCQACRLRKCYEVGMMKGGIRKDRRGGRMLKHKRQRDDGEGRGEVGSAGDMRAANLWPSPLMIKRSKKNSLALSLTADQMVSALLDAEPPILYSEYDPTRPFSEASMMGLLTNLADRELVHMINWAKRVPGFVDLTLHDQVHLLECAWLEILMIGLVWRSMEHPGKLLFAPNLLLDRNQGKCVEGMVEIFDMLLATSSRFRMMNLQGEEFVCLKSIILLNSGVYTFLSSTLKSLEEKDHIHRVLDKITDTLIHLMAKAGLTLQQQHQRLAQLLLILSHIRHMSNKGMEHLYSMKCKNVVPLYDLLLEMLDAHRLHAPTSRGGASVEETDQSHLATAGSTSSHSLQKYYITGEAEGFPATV

Experiment [4] is described as follows: cells.
Experiment [5] concerns the target T3, Carboxy-terminal domain RNA polymerase II polypeptide A small phosphatase 1 (Homo sapiens, UniProt Q9GZU7).
T3 sequence (Q9GZU7 whole entry): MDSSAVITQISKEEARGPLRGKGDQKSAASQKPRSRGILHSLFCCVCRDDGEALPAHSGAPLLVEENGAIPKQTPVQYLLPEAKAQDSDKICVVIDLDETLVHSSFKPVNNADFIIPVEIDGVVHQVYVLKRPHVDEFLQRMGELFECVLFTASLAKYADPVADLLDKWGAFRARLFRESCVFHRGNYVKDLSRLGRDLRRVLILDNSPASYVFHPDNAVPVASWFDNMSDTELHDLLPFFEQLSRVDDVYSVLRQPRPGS
Description: inhibitors of CTDSP1, concentration-response testing, biochemical assay, absorbance-based, actives from ultra-high-throughput screening (AID 540297). The format is functional.

Experiment [6] addresses T4, High affinity choline transporter 1 (Homo sapiens, UniProt Q9GZV3).
T4 sequence (Q9GZV3 whole entry): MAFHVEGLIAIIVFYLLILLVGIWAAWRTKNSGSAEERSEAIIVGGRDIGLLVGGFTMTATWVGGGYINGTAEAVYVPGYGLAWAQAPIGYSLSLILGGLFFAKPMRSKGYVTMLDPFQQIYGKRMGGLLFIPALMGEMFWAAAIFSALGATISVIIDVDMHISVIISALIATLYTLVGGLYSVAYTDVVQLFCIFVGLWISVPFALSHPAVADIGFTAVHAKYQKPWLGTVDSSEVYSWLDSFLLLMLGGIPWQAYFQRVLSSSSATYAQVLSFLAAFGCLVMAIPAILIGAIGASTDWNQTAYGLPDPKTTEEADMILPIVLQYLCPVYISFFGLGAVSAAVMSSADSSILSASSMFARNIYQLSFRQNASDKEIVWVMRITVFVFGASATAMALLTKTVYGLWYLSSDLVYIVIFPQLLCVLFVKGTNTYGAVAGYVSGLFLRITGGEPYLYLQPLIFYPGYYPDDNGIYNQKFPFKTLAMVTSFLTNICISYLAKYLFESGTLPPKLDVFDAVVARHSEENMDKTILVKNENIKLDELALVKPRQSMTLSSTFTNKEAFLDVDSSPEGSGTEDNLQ
Description: CHT inhibitors, dose response, cell-based, 5-point CRC, membrane potential dye (AID 504840). The format is functional.

In experiment [7] the target is T5, Fatty acid synthase (Homo sapiens, UniProt P49327). Kind of experiment: FAS thioesterase domain inhibitors, dose response, biochemical, endpoint fluorescence intensity, uHTS hits (AID 624327).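 Also: fluorescence from hydrolysis of an O-methyl fluorescein acyl ester substrate by the enzyme.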 The format is functional.
Experiment [8] deals with T5, Fatty acid synthase. Description: FAS thioesterase domain inhibitors, dose response, biochemical, kinetic fluorescence intensity (AID 624326).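 Also: rate of fluorescence rise from hydrolysis of a fluorogenic O-methyl fluorescein ester substrate.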 Type of experiment: functional.
Experiment [9] has as its target T6, Histone-lysine N-methyltransferase NSD2 (Homo sapiens, UniProt O96028).
T6 sequence (O96028 whole entry): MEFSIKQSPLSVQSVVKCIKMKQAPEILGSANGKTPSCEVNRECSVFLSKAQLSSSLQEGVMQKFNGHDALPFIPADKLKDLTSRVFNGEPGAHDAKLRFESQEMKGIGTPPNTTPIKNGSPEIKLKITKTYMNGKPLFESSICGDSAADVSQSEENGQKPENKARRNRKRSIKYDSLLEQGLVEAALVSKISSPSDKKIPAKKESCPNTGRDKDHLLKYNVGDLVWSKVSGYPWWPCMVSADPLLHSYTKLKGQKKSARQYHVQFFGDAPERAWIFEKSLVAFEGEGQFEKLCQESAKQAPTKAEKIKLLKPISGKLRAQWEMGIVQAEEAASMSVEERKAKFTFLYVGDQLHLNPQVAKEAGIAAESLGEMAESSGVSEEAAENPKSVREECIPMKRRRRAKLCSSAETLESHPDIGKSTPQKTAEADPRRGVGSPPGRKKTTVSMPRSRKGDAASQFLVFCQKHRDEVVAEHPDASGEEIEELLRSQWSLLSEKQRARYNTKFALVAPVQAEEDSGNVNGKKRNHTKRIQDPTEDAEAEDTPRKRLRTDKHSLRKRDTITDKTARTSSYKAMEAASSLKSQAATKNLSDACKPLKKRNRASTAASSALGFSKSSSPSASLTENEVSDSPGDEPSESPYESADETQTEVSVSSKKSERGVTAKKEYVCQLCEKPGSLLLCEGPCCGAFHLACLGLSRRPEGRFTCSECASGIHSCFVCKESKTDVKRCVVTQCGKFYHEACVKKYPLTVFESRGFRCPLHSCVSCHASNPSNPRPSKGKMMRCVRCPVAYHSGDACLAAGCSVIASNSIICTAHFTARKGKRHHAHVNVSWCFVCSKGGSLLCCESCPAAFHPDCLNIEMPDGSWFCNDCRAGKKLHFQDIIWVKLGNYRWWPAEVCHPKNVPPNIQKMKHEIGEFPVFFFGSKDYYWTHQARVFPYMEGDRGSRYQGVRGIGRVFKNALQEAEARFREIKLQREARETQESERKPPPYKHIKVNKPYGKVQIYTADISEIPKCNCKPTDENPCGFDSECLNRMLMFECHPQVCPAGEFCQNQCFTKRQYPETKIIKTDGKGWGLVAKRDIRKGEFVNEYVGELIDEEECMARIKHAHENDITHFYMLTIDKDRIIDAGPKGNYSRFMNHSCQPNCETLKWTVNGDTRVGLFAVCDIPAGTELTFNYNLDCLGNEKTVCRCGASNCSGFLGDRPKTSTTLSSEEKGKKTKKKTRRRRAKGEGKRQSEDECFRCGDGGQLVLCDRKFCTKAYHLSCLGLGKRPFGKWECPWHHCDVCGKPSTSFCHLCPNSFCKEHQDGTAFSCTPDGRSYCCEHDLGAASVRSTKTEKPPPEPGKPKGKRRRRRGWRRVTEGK
Type of experiment: biochemical.

Experiment [10] has as its target Peroxisome proliferator-activated receptor gamma/Nuclear receptor coactivator 1 (Homo sapiens, UniProt P37231). Description: TR-FRET dose response biochemical High Throughput Screening assay for agonists of the steroid receptor coactivator 1 (SRC-1) recruitment by the peroxisome proliferator-activated receptor gamma (PPAR gamma): non-selective agonists. [Related pubchem assays (depositor defined):AID1300, AID1808, AID504735, AID631]. The format is protein assay. (TR-FRET usually uses a lanthanide donor and a delayed reading to cut background.)

The target of experiment [11] is Peroxisome proliferator-activated receptor gamma/Nuclear receptor coactivator 3 (Homo sapiens, UniProt P37231). Kind of experiment: TR-FRET dose response biochemical High Throughput Screening assay for agonists of the steroid receptor coactivator 3 (SRC-3) recruitment by the peroxisome proliferator-activated receptor gamma (PPAR gamma): non-selective agonists. [Related pubchem assays: 1301 (Confirmation screen.), 1048 (Primary screen.)]. The format is functional.
Sequence of Peroxisome proliferator-activated receptor gamma/Nuclear receptor coactivator 3 (P37231 whole entry): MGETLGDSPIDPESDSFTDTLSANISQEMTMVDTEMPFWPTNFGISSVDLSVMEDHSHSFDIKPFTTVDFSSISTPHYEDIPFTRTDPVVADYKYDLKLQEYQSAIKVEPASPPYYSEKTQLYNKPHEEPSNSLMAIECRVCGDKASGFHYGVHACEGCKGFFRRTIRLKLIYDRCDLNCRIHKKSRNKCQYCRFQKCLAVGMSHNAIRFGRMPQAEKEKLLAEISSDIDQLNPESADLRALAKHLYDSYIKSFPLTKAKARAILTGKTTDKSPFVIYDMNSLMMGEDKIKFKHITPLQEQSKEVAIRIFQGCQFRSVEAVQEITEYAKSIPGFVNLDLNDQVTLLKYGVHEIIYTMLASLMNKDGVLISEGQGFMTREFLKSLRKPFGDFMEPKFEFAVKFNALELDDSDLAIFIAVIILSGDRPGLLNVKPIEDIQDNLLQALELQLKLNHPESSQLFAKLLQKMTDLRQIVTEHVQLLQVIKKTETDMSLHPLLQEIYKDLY
Sequence of Peroxisome proliferator-activated receptor gamma/Nuclear receptor coactivator 3 (Q9Y6Q9 whole entry, further chain): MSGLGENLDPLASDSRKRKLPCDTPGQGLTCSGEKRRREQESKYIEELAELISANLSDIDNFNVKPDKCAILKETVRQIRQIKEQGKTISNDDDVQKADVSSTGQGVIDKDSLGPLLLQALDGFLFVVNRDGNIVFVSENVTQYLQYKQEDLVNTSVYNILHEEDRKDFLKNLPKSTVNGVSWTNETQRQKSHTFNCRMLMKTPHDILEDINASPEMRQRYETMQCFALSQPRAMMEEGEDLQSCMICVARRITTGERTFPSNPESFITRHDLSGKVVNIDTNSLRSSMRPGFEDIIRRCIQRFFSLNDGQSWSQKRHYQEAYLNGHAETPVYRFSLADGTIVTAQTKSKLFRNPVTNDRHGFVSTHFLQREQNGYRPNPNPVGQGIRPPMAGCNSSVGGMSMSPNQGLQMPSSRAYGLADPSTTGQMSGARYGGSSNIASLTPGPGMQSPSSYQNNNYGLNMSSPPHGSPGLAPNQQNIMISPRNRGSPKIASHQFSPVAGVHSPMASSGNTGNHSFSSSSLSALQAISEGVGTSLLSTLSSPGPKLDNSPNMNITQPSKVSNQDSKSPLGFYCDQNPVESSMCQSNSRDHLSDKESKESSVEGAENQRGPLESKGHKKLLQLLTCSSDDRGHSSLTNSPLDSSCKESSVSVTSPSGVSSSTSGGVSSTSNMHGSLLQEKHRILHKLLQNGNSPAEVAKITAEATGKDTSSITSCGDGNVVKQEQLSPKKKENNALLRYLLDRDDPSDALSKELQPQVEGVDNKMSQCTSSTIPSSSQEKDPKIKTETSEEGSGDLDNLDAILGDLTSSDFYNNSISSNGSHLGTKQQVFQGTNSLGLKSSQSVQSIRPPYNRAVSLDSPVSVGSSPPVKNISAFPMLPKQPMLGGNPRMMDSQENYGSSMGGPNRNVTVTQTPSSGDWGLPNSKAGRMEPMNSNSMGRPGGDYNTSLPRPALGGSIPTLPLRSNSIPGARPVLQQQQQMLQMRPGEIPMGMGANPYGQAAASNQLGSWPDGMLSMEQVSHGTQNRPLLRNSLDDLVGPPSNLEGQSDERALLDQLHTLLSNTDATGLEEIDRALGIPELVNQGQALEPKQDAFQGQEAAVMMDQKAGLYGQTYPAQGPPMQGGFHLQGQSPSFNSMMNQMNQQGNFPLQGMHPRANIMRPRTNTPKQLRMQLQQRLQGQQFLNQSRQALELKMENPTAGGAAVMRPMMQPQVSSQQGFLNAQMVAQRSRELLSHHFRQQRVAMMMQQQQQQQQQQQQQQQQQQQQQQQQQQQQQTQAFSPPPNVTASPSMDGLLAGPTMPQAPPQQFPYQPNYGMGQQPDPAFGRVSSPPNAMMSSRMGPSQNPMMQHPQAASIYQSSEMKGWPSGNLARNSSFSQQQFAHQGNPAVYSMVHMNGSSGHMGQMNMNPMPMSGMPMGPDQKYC

Experiment [12] deals with Peroxisome proliferator-activated receptor gamma/Nuclear receptor coactivator 2 (Homo sapiens, UniProt P37231). Kind of experiment: TR-FRET dose response biochemical High Throughput Screening assay for agonists of the steroid receptor coactivator 2 (SRC-2) recruitment by the peroxisome proliferator-activated receptor gamma (PPAR gamma): non-selective agonists. [Related pubchem assays: 1297, 1032 ]. Type of experiment: functional.
Sequence of Peroxisome proliferator-activated receptor gamma/Nuclear receptor coactivator 2 (P37231 whole entry): as the sequence (P37231 whole entry) above
Sequence of Peroxisome proliferator-activated receptor gamma/Nuclear receptor coactivator 2 (Q15596 whole entry, further chain): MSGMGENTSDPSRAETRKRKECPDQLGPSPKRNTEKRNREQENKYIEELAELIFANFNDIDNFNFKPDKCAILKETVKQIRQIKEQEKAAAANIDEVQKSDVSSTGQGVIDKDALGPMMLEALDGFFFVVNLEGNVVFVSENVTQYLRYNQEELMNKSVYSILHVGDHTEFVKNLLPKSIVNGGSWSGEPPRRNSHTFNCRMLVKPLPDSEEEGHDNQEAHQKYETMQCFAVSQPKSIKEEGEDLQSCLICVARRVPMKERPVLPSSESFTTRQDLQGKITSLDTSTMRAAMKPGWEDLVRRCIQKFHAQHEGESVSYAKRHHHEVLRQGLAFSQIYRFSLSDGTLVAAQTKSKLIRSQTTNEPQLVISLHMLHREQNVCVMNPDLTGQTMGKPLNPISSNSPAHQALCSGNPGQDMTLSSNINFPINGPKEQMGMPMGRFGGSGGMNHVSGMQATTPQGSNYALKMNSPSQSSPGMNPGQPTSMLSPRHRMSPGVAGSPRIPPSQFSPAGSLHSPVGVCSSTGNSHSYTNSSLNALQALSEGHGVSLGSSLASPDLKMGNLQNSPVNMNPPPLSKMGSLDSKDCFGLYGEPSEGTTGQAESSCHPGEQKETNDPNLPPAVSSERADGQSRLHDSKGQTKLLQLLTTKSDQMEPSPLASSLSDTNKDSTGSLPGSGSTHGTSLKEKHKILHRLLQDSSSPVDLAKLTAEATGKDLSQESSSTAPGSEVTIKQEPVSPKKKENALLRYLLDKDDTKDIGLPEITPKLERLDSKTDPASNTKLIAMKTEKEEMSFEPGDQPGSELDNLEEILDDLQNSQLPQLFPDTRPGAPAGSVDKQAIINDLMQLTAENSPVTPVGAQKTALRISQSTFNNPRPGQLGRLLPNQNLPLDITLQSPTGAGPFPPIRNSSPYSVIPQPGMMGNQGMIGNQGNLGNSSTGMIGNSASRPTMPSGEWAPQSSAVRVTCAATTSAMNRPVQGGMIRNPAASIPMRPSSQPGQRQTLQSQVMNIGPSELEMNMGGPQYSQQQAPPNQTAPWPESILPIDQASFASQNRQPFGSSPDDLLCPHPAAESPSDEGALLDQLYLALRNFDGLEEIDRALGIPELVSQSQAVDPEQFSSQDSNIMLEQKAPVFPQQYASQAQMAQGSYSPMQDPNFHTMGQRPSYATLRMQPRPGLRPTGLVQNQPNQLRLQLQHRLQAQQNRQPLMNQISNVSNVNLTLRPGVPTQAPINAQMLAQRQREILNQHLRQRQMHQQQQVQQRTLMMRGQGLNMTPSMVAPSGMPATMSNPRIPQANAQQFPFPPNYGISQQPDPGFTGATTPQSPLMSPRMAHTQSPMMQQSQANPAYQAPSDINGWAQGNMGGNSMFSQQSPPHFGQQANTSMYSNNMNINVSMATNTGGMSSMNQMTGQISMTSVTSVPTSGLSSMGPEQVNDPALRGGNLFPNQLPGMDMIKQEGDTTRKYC

Experiment [13] can be described thus: cells. Type of experiment: functional.

Sequence of Glucose-6-phosphate 1-dehydrogenase (P11413 whole entry): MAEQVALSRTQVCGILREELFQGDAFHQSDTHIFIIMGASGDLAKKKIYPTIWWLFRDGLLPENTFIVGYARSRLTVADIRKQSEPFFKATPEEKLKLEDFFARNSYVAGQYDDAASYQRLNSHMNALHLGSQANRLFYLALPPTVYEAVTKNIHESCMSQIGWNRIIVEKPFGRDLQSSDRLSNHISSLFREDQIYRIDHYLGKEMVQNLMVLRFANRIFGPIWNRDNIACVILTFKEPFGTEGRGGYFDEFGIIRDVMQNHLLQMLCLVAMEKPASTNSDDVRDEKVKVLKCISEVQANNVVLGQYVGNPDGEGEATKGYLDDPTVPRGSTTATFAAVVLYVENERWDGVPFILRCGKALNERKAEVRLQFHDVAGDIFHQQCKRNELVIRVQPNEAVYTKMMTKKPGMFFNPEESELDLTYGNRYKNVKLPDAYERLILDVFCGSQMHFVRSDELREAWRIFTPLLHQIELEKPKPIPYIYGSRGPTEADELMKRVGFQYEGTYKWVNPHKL

What is called IC50 is the concentration at which inhibition is half-maximal. Turning to `CN1CCN(C(=S)c2ccc([N+](=O)[O-])cc2)CC1`, in experiment [1], the IC50 is > 80 µM (inactive).

As a reminder, the EC50 is the concentration needed to bring the measured effect to its halfway point. For the molecule `COc1cccc(-c2c(C(=O)N/N=C/c3ccc(C)s3)nnn2-c2nonc2N)c1`, in experiment [2], the EC50 is given as > 195 µM (not active). Moreover, the IC50 in experiment [1] is > 80 µM (inactive).

One may read the AC50 as the midpoint of the concentration-response curve, whichever way the signal moves. With `O=C1c2ccccc2/C(=C\C#Cc2ccccn2)N1c1ccccc1`, the AC50 in the experiment on HeLa was 42.6 µM (active).

One may read the CC50 as the concentration that lowers cell viability or growth by half. For the molecule `Cc1[nH]c2ccc(-c3nnc(SCC(=O)c4ccccc4F)o3)cc2c1C`, in [3], the CC50 was 32.8 µM (active). Also, the IC50 at Estrogen receptor is 26 µM (active); in “cells [4]”, 40.7 µM (active).

Turning to `CC(=O)c1ccc2oc3ccccc3c(=O)c2c1`, the AC50 with HeLa was 41 µM (active).

Take `Cn1nc(-c2ccc(C(=O)Nc3ccc(F)cc3)cc2)c2ccccc2c1=O`: the concentration for half-maximal inhibition (IC50) in experiment [5] was 10.4 µM (active).

For the molecule `Cc1ccc(-n2[nH]c(C)c(/C=N/Nc3ccc([N+](=O)[O-])cc3[N+](=O)[O-])c2=O)cc1C`, the IC50 in experiment [6] is 10.5 µM (active); in [5], 3.32 µM (active); at Fatty acid synthase [7] it was 53.5 µM (inactive); at Fatty acid synthase [8], 32.9 µM (inactive). The AC50 in experiment [9] was 14 µM (active).

For the molecule `CN(C(=O)c1cc(-c2ccccc2)on1)C1CCCCC1`, the AC50 in the experiment with HeLa was > 350 µM (inactive).

`CCOc1ccc(NC(=O)CSc2ncnc3c2sc2ccccc23)cc1`: the values for the EC50 in experiment [10], in [11] and in [12] were > 79.4 µM (inactive), 81.4 µM (not active) and 32 µM (not active), respectively.

`CCn1c(=O)cc(SCC(=O)NCCN2CCN(Cc3ccccc3)CC2)c2ccccc21`: the values for the EC50 in experiment [10], in experiment [11] and in experiment [12] were > 79.4 µM (inactive), > 79.4 µM (not active) and > 79.4 µM (not active), respectively.

As for `Cc1ccc(NCCC(=O)c2cccs2)cc1C`, the IC50 in the experiment “cells [13]” was 20.7 µM (active). In the experiment with HeLa, the AC50 was > 350 µM (inactive).

As for `COc1ccccc1OCCn1c(SCC(=O)O)nc2ccccc21`, in experiment [5], the IC50 is 6.47 µM (active).

As to `CSc1cnn(Cc2ccccc2)c(=O)c1SCc1ccccc1`, the results for the EC50 in [10], in [11] and in experiment [12] were 3.27 µM (active), > 79.4 µM (not active) and 7.94 µM (active), respectively.

Consider `COc1c(C)cccc1C(=O)NC(=S)Nc1cccc2nsnc12`, for which the EC50 in experiment [10] is 3.68 µM (active); in experiment [11], 39.5 µM (not active); in [12] it was 4.14 µM (active).
